{"source": "patent US20230000807A1", "about": "“CBD ORAL FORMULATION” (Clear Lake Research, LLC, priority 2020, published 2023)", "key": {"CB2 receptors [1]": {"target": "T1, CB2 receptors (Homo sapiens, UniProt P34972)", "T1 sequence (P34972 whole entry)": "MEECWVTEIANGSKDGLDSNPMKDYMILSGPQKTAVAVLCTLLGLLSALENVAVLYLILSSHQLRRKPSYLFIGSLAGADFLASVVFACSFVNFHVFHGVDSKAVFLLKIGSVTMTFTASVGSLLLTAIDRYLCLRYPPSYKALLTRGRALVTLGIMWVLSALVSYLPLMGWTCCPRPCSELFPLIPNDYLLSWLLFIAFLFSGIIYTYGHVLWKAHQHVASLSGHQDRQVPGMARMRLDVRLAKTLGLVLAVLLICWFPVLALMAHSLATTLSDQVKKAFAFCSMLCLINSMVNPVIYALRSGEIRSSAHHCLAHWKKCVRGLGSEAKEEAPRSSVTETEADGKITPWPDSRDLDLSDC", "assay": "receptor affinity", "format": "binding", "settings": "estimated; times the affinity of CBD", "protocol": "Because CB2 receptors have a low affinity for CBD, a relatively large amount of CBD should be used for efficacy. In a specific implementation, a thin film strip has 100 mg CBD. In alternatives, the oral thin film is as little as 20 mg CBD. Because CBD is a relatively expensive component, the ratio of CBD to other components is more prone to cost/efficacy trade-offs than other components of the formulation. Advantageously, a low does of CBD, of 50 mg or less, acts as a stimulant, making a 20 mg to 50 mg formulation appropriate for formulations that have a goal of reducing the amount of CBD necessary and meeting one of the goals of a concentration improver/mood enhancer, which is stimulation.\nA greater proportion of CBD may be desirable for the purpose of binding to theorized CBD3 receptors or other presently poorly defined receptors with less affinity for CBD. A high dose of CBD, over 100 mg up to less than 250 mg can have a sedative effect that may be effective for certain individuals, though it is unlikely desirable to reach 250 mg. If CBD is replaced with by endocannabinoid with (an estimated) 1,000 times the affinity of CBD, such as 2-Lineoleoyl-glycerol (3443-82-1) or 2-Palmitolyl-glycerol (23470-00-0), an alternative implementation of the oral thin film could have 0.025 mg to 0.1 mg endocannabinoid, but the formulation would likely be much more expensive than CBD."}, "[2]": {"settings": "applied topically; cited from earlier work"}, "CB2 receptors [3]": {"target": "T1, CB2 receptors", "settings": "cited from earlier work"}}, "data": [{"compound": "2-Lineoleoyl-glycerol", "values": [{"measurement": "affinity relative to CBD", "setting": "CB2 receptors [1]", "value": "~1,000 times"}]}, {"compound": "2-Palmitolyl-glycerol", "values": [{"measurement": "affinity relative to CBD", "setting": "CB2 receptors [1]", "value": "~1,000 times"}]}, {"compound": "C=C(C)[C@@H]1CCC(C)=C[C@H]1c1c(O)cc(CCCCC)cc1O", "note": "[CBD, cannabidiol]", "values": [{"measurement": "time to have a significant pain relief impact", "setting": "[2]", "value": "about 30 minutes"}, {"measurement": "affinity of CB2 receptors for the substance", "setting": "CB2 receptors [3]", "value": "low affinity"}]}]}
